Reference: PubChem BioAssay AID179 (DTP/NCI, 2004)
The source made the active and inactive calls.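 Rule for the calls: active = compounds giving half or more protection of infected cells from virus-caused growth loss, again on retest; inactive = the rest.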

Test system: CEM cells HIV-1 protection, formazan growth assay
Assay: NCI AIDS Antiviral Assay
Conditions: for IC50: measured here: growth of uninfected CEM cells
How it was run: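 Screen of anti-HIV-1 activity in human CEM cells using a formazan-based growth measurement at five drug concentrations. Hits with 50% or greater protection were repeated, and confirmation required reproducible complete protection.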

| SMILES | EC50 | IC50 | outcome |
| --- | --- | --- | --- |
| CCCCCCCCCCCCCCCCCCCCCCCCCCCCCC=C(c1cc(Cl)c(O)c(C(=O)O)c1)c1cc(Cl)c(O)c(C(=O)O)c1 | 12.3 µM | 224 µM |  |
| COC(=O)c1cc(C(c2cc(C(=O)OC)c(OC)c(Br)c2C)C(Cl)(Cl)Cl)c(C)c(Br)c1OC | > 200 µM | 25.7 µM |  |
| OC1(c2ccccc2)CC2CCC(C1)N2CCCC(O)(c1ccccc1)c1ccccc1 (stereo unspecified) | > 200 µM | 28.8 µM |  |
| c1ccc2c3csccc-3nc2c1 | > 200 µM | 97.7 µM |  |
| Cc1nc2ccccc2c2nnc(SCC(=O)N(Cc3ccccc3)c3ccccc3)n12 | > 200 µM | > 200 µM |  |
| CCCCCCCCCCCCCCCc1cc(O)ccc1N=O | > 200 µM | 2.57 µM |  |
| C/C(=N\Nc1ccc([N+](=O)[O-])cc1)C(=O)N(C)Nc1ccccc1 |  |  | inactive |
| Cc1cn(CC(=O)NCCO)c(=O)[nH]c1=O | > 200 µM | > 200 µM |  |
| CC(SCCCCCCSC(C)C(=O)O)C(=O)O (stereo unspecified) | > 851 µM | > 851 µM |  |
| CCCC(=O)c1c(NOC2OC(COC(C)=O)C(OC(C)=O)C(OC(C)=O)C2OC(C)=O)nc(OC)n(C)c1=O (stereo unspecified) | > 63.1 µM | > 63.1 µM |  |
| CC(=O)c1ccc2c(ccc(=O)n2C)c1 | > 468 µM | 107 µM |  |
| COc1ccc2nc(N/N=C/C(C)=N/Nc3cc(C)c4cc(OC)ccc4n3)cc(C)c2c1 | > 100 µM | 14.5 µM |  |
| CCOc1ccc(C2Oc3c(cccc3OC)C=C2[N+](=O)[O-])cc1OCC (stereo unspecified) | > 200 µM | 3.02 µM |  |
| COc1ccc2c(c1)c1c3n2CCNN=C3CCC1 | > 74.1 µM | > 74.1 µM |  |
| C=C1C(=O)OC2C=C(CCC(C)=O)C(C)C(OC(C)=O)CC12 (stereo unspecified) |  |  | inactive |
| C=C(C)C#CC1(O)C=C(OC)C(OC)=CC1=O (stereo unspecified) | > 200 µM | 20.9 µM |  |
| COC(=O)c1cc(C(=CCCCCBr)c2cc(Cl)c(OC)c(C(=O)OC)c2)cc(Cl)c1OC | 45.7 µM | 151 µM |  |
| C/C=C1/CN2CC[C@]34C=C(CO)C1CC23Nc1ccccc14 (stereo partly specified) | > 123 µM | > 123 µM |  |
| COc1ccc(-c2nnc(CCCCCCCCc3nnc(-c4ccc(OC)cc4)o3)o2)cc1 | > 200 µM | > 200 µM |  |
| CC1CCC2(CC1)NC1=C(CC(C)CC1)C1=C2CC(C)CC1 (stereo unspecified) | > 200 µM | 35.5 µM |  |
| CCC1(O)C(=O)c2ccccc2N(c2ccccc2)C1=O (stereo unspecified) | > 200 µM | > 200 µM |  |
| C[n+]1cccc2ccc(OC(=O)c3ccccc3)cc21 |  |  | inactive |

| SMILES | EC50 | IC50 | outcome |
| --- | --- | --- | --- |
| CCNc1nnc(-c2nsc3ccccc23)s1 | > 20 µM | > 20 µM |  |
| N#Cc1cccc(/C=C2\CCc3ccccc3C2=O)c1 | > 28.2 µM | 20.9 µM |  |
| CC(C)(C)N=c1n(C(C)(C)C)oc(=O)n1C(C)(C)C | > 151 µM | 135 µM |  |
| Cc1ccc(S(=O)(=O)OC2C3C=CC2C2CSCC32)cc1 (stereo unspecified) | > 100 µM | > 100 µM |  |
| CC1=CC2=C(C(N)=O)C(=O)OC2(C)C(c2ccccc2)C1 (stereo unspecified) | > 200 µM | > 200 µM |  |
| NC(Cc1ccccc1)C(=O)OCN1C(=O)C2C3C=CC(C2C1=O)C1C2C(=O)N(COC(=O)C(N)Cc4ccccc4)C(=O)C2C31 (stereo unspecified) | > 200 µM | 31.6 µM |  |
| CC(C)(CO)C(O)C(=O)NCCCO (stereo unspecified) | > 200 µM | > 200 µM |  |
| CC(=O)Oc1c2c(cc3c1C(=O)NC1C3=CC(OC(C)=O)[C@@H](OC(C)=O)[C@H]1OC(C)=O)OCO2 (stereo partly specified) |  |  | inactive |
| O=[N+]1ON=C(c2ccccc2)C1=C1C(c2c(-c3ccccc3)no[n+]2[O-])=NON1[O-] | > 200 µM | 6.03 µM |  |
| C=C1CC(C#N)(C#N)[C@H]2C3CCCC3C[C@@H]12 (stereo partly specified) (tested in a mixture with another compound) | > 200 µM | 33.1 µM |  |
| CCCC(O)S(=O)(=O)O (stereo unspecified) | > 200 µM | > 200 µM |  |
| COc1cc(C(=O)O)ccc1OS(=O)(=O)O | > 200 µM | > 200 µM |  |
| COc1c(O)c(O)cc2c1-c1ccc(OC)c(=O)cc1C(NC(C)=O)CC2 (stereo unspecified) | > 200 µM | 1.05 µM |  |
| N#C/C(=C\c1ccc(O)c(O)c1)C(=O)OCc1ccccc1COC(=O)/C(C#N)=C/c1ccc(O)c(O)c1 | > 200 µM | 8.71 µM |  |
| CNc1ncnc2nc(C)c(C)nc12 | > 200 µM | > 200 µM |  |
| O=C(O)C(F)(F)C(F)(F)C(F)(F)C(F)(F)C(F)(F)C(F)(F)C(F)(F)C(F)(F)F | > 200 µM | 105 µM |  |
| N=C1N(/N=C/c2ccccn2)C(=Nc2ccccc2)C(=S)N1c1ccccc1 | > 200 µM | 5.13 µM |  |
| N#Cc1ccc(C=C2C(=O)c3ccccc3C2=O)cc1 | > 72.4 µM | 46.8 µM |  |
| N#Cc1c2c(c(N)oc1=O)C(c1ccccc1)CC(=O)N2 (stereo unspecified) | > 200 µM | > 200 µM |  |
| CCCCCC=C(c1cc(Cl)c(O)c(C(=O)NO)c1)c1cc(Cl)c(O)c(C(=O)NO)c1 | > 200 µM | 35.5 µM |  |
| N#C/C(=C\NC(=S)Nc1cc(Cl)ccc1Cl)C(=O)c1ccc2ccccc2c1 | > 100 µM | > 100 µM |  |
| NC(=O)c1ncn(CC2(CO)CCC2)n1 | > 200 µM | > 200 µM |  |

| SMILES | EC50 | IC50 | outcome |
| --- | --- | --- | --- |
| Cc1ccc(N/N=c2\c3nc4ccccc4nc2n(-c2ccccc2C)c(=S)n3-c2ccccn2)cc1 | > 17.8 µM |  |  |
| O=C(CCCN1CC=C(n2c(=O)[nH]c3ccccc32)CC1)c1cccs1 | > 200 µM | 120 µM |  |
| O=C1c2ccccc2-c2c1c1ccccc1c(=O)n2-c1cccnc1 | > 30.9 µM | 7.08 µM |  |
| CCOC(=O)C(C)c1nc2cc(C(F)(F)F)ccc2[nH]c1=O (stereo unspecified) | > 200 µM | 81.3 µM |  |
| O=c1ccccc2cccc(O)c12 |  |  | inactive |
| O=C(NNC(=S)S)c1ccncc1 | > 200 µM | 95.5 µM |  |
| CN(C(=O)C1=CCC2(CC1)OCCO2)c1ccccc1OS(=O)(=O)C(F)(F)F | > 200 µM | > 200 µM |  |
| N#C/C=C/c1cccc(Cl)c1 | > 60.3 µM | > 60.3 µM |  |
| O=C1CC2CC(=O)CC2(C2CC=CC2)C1 (stereo unspecified) | > 245 µM | > 245 µM |  |
| CC(C)(C)/C(O)=C\c1nc2ccc(C(F)(F)F)cc2[nH]c1=O | > 200 µM | > 200 µM |  |
| O=C(CC(C(=O)c1ccsc1)c1ccccc1)c1ccccc1 (stereo unspecified) | > 200 µM | 174 µM |  |
| N#CC(Nc1ccccc1)c1ccc(C(C#N)Nc2ccccc2)cc1 (stereo unspecified) | > 200 µM | 9.55 µM |  |
| COC(=O)N1C2c3ccccc3C(c3ccccc32)N1C(=O)OC | > 200 µM | > 200 µM |  |
| O=c1cn[nH]c2c(Br)cccc12 | > 479 µM | 275 µM |  |
| COc1cccc(/C=C2/S/C(=N/Nc3nc(C)c(C(C)=O)s3)NC2=O)c1O | > 200 µM | 32.4 µM |  |
| O=c1c2cc(Br)ccc2[nH]c(=S)n1-c1ccccc1 | > 40.7 µM | > 40.7 µM |  |
| CC1(C)N=C(N)N=C(N)N1c1ccc(Cl)c(Cl)c1 | > 0.01 µM | 0.00427 µM |  |
| CN(C)CCC(O)(c1ccccc1)C(O)(CCN(C)C)c1ccccc1 (stereo unspecified) | > 72.4 µM | > 72.4 µM |  |
| COc1ccc2nc3c(nc2c1)C(C)(C)C=C3c1ccc(Br)cc1 | > 100 µM | > 100 µM |  |
| Cc1cccc2c1C(=O)N(CC[P+](c1ccccc1)(c1ccccc1)c1ccccc1)C2=O | > 200 µM | 7.94 µM |  |
| CC(C(=O)c1ccc(O)cc1)C1(O)C(=O)Nc2c(Cl)cc(Cl)cc21 (stereo unspecified) | > 257 µM | 112 µM |  |
| CCOC(=O)CC(=O)NC1CC2CCC1(C)C2(C)C (stereo unspecified) | > 200 µM | > 200 µM |  |
